# Measurements reported in patent publication US11203576B2, “Aurora kinase and Janus kinase inhibitors for prevention of graft versus host disease” (H. LEE MOFFITT CANCER CENTER AND RESEARCH INSTITUTE, INC., priority 2016, dated 2021).
# Like-named read-outs stand apart in the source and are kept apart here.
# Key:
# [1] = system: T-cells allostimulated by dendritic cells (DC); assay: Allogeneic mixed leukocyte reaction (alloMLR), T-cell proliferation; format: cell-based, human
# Method: Bulk donor T-cells were allostimulated with allogeneic DCs (DC:T-cell ratio of 1:30) as previously described (OneBlood, Tampa, Fla.)(15, 16, 20). […] As indicated, alloMLRs consisting of Treg depleted, naïve CD4^+ T-cells (Miltenyi Biotec Inc, San Diego, Calif.) were treated with a combination of ARL67156 (CD39 inhibitor, 125 μM, Sigma), AJI, or DMSO on day 0 to study the role of CD39 and ATP in this system. T-cell proliferation was measured on day 5 by a colorimetric assay (CellTiter 96 Aqueous One Solution Cell Proliferation Assay [MTS]; or CellTiter Blue, Promega, Madison, Wis.). Absorbance/optical density (OD) was analyzed at 490 nm or 590 nm, respectively. Proliferation (%)=(OD treated alloMLR−OD T-cells alone)/(OD DMSO alloMLR−OD T-cells alone)×100.
# [2] = system: CD39 on iTreg; assay: ATP hydrolysis assay; format: cell-based, human; details: ARL67156 125 μM
# Method: iTregs generated in the presence of AJI-241 (750 nM) or DMSO were plated in V-bottom 96 well plates in serum free media at a concentration of 75,000 cells per 100 μL. ARL67156 (125 μM) was added or not as indicated. A fixed dose of ATP (50 μM) was added to the cells and incubated at 37° C. for 45 minutes. ATP consumption was measured by a luminescence assay per the manufacturer's instructions (Promega, CellTiter-Glo Luminescent Cell Viability Assay) and read by a spectrofluorimeter. Percent consumption was calculated as (luminescence of test supernatant/luminescence of 50 μM ATP cell-free control supernatant)×100.
# [3] = system: pSTAT5 (Y694); assay: IL-2-induced STAT5 phosphorylation in T-cells; format: cell-based, human; details: vs DMSO or unstimulated controls
# Method: As indicated, T cells were serum-starved in RPMI treated with DMSO diluent control, alisertib, TG101348, a combination of both inhibitors, AJI-214, or AJI-100 for 4 hours. IL-6-induced pSTAT3 or IL-2-induced pSTAT5 (Y694) was measured by flow cytometry.
# [4] = system: TH17; assay: IL-17 ELISPOT of DC-stimulated CD4+ T cells; format: cell-based, human; details: DC-stimulated purified CD4+ T cells
# Method: Naïve CD4^+ T cells were purified and allostimulated (DC/T cell ratio of 1:30) as reported (B. C. Betts et al., CD4^+ T cell STAT3 phosphorylation precedes acute GVHD, and subsequent TH17 tissue invasion correlates with GVHD severity and therapeutic response. J. Leukocyte Biol. (2015)). Alisertib ([…]), TG101348 (350 nM), both alisertib and TG101348, AJI-214 (750 nM), AJI-100 (750 nM), or DMSO control was added once on day 0. Medium was supplemented with IL-6 (1×10^5 IU/mL), TGF-β (4 ng/mL; R&D Systems), and anti-IFN-γ monoclonal antibody ([…]; eBioscience) to polarize TH17. After 5 days, the T cells were harvested, washed, and then plated at 35,000 cells per well in an IL-17 ELISPOT plate (R&DSystems). The CD4^+ T cells were stimulated with PMA/ionomycin, and the ELISPOT assay was performed according to the manufacturer's instructions.
# [5] = system: H3 Ser10 (target of Aurora); assay: H3 Ser10 phosphorylation in DC-allostimulated T-cells (flow cytometry); format: cell-based, human; details: 5-day allogeneic DC stimulation; AJI 750 nM, alisertib 1.75 μM, TG101348 350 nM
# Method: After 5 days, T cells were then harvested and directly fixed (Cytofix, BD Biosciences) for 10 min at 37° C. After washing with phosphate-buffered saline, the T cells were permeabilized with icecold methanol (90%, v/v) for at least 20 min at -20° C. The cells were stained for expression of CD3 and pH[…].
# [6] = system: RORgammaT; assay: RORgammaT expression by RT-PCR; format: cell-based, human; details: TH17-polarizing medium, 5 days, vs DMSO
# [7] = system: GVHD; details: mouse, in vivo; cited from earlier work
# [8] = system: iTreg; assay: iTreg differentiation and potency; format: cell-based, human; details: for iTreg:allo Tconv ratio: 5-day MLRs; for iTreg:allo Tconv ratio / iTreg differentiation / absolute numbers of iTregs: vs DMSO; for iTreg differentiation / absolute numbers of iTregs: Treg-depleted naïve CD4+ T-cells, allogeneic DCs, 5 days; for suppressive capacity of iTregs generated in presence of inhibitor: standard suppression assay, no additional inhibitor added
# Method: On day 5, iTregs were isolated and washed to minimize drug carry-over as reported. The T cells were harvested and surface-stained on day 5 for CD3, CD4, CD25, and CD127, followed by fixation and permeabilization (eBioscience) and Foxp3 staining. The absolute number of iTreg was calculated by flow cytometry using CountBright beads (Life Technologies). The purified iTregs were titrated against alloMLRs consisting of responder CD4+CD25− T cells (5×10^4) from the iTregs donor and fresh allogeneic DCs (1.6×10^3) to determine suppressive potency. T cell proliferation was determined by pulsing cells with [^3H]thymidine ([…]). Surface expression of CD39 and LAG3 was evaluated on the iTregs. iTregs production of CTLA4 was assessed by intracellular staining after a 5-hour treatment of PMA/ionomycin, with GolgiStop added during the last 4 hours of incubation. iTregs synthesis of IL-10 and TGF-β (Quansys Biosciences) was quantified from supernatants using multiplex cytokine assays after PMA/ionomycin stimulation.
# [9] = system: xenogeneic GVHD (NSG mice transplanted with human PBMCs); assay: Xenogeneic GVHD model; format: in vivo; details: alisertib 30 mg/kg daily, TG101348 45 mg/kg twice a day, oral gavage day 0 to +14
# From the text: After transplantation and treatment with either AJI-100 or vehicle control, human T cells were isolated from recipient mouse spleens at day +14, stained for pH3Ser^10 or pSTAT3 (+IL-6 stimulation), and analyzed as described.
# NOD scid gamma (NSG) mice (male or female, 6-24 weeks old) were purchased from Jackson Laboratory (Bar Harbor, Me., USA) and raised per an IACUC-approved protocol in adherence to the NIH Guide for the Care and Use of Laboratory Animals. Mice received either (i) alisertib (30 mg/kg daily), TG101348 (45 mg/kg twice a day), a combination of alisertib and TG101348, or vehicle (methylcellulose) by oral gavage or (ii) AJI-100 (50 mg/kg daily) or vehicle (50% polyethylene glycol, 15% 2-hydroxypropyl-b-cyclodextrin, and 10% DMSO in sterile saline) ip from day 0 to day +14.
# Mice were monitored for GVHD clinical scores (K. R. Cooke et al., An experimental model of idiopathic pneumonia syndrome after bone marrow transplantation: I. The roles of minor H antigens and endotoxin. Blood 88, 3230 (1996)), weight, and premoribund status. As indicated, mice were euthanized on day +14 to study recipient spleen Tconv, Tregs, TH1, TH17, B cells, and T-cell signal transduction. Human CD4^+ Treg (CD25+, CD127^−, Foxp3^+), Tconv(CD25^+, CD127^+), TH1, TH17, and CD19^+ B cells residing in recipient spleens were quantified by flow cytometry. T-cell pH3 ser10 and PSTAT3 were evaluated by flow cytometry. IL-17 ELISPOTs were performed using isolated human T cells from recipient mouse spleen as described above. Tissue samples were prepared, stained (Ventana Medical Systems, Tucson, Ariz.), and imaged (Vista, Calif., USA) to identify human T-cells as previously described. All vertebrate animal work was IACUC-approved.
# [10] = system: STAT3 (target of JAK2); assay: STAT3 phosphorylation in T-cells (flow cytometry); format: cell-based, human; details: in vitro, DC- or IL-6-stimulated, vs DMSO
# Method: IL-6-induced pSTAT3 or IL-2-induced pSTAT5 (Y694) was measured by flow cytometry.
# [11] = Bioavailability; details: in vivo
smiles,measurement,setting,value
CCN(CC)c1ncnc2c1ncn2[C@@H]1O[C@H](COP(=O)(O)OP(=O)(O)C(Br)(Br)P(=O)(O)O)[C@@H](O)[C@H]1O [ARL67156],T-cell inhibition by bisanilinopyrimidine (I)/AJI-214 on CD39 blockade,"[1]; natural Treg-depleted CD4+ alloMLR, ARL67156 added",significantly weakened
same,hydrolysis of ATP by AJI-treated iTregs on CD39 blockade,[2],significantly impaired
COc1cc(Nc2ncc3c(n2)-c2ccc(Cl)cc2C(c2c(F)cccc2OC)=NC3)ccc1C(=O)O [alisertib],IL-2-induced STAT5 activation/phosphorylation in T-cells,[3],remained intact
same,inhibition at 0.625 µM,"[1]; Homo sapiens, T-cell, alisertib 625 nM, read-out: inhibition of proliferative response of T-cells in alloMLRs",32.5%
same,IC50,"[1]; Homo sapiens, T-cell, alisertib alone (Study 2 text), read-out: median inhibitory concentration (IC50), T cells in alloMLRs",10 µM
same,IC50,"[1]; Homo sapiens, T-cell, alisertib alone, read-out: IC50, proliferative response of T-cells in alloMLRs",10 µM
same,IC50,"[1]; Homo sapiens, TG101348 and alisertib added together at fixed ratio 1:5, read-out: IC50 of the combination, alisertib concentration",1.75 µM
same,TH17 (IL-17 ELISPOT),[4],no effect
same,phosphorylation of histone 3 serine 10 (pH3 Ser10) in T-cells,[5],only inhibited pH3Ser^10
same,RORgammaT expression in alloresponder CD4+ T-cells,[6],no effect
same,onset of GVHD in mice,[7],significantly delayed the onset of GVHD
same,iTreg:allo Tconv ratio,[8],incrementally larger Treg:allo Tconv ratios
same,iTreg differentiation / absolute numbers of iTregs,[8],less absolute numbers of iTregs and allo Tconv
same,suppressive capacity of iTregs generated in presence of inhibitor,[8],superior suppressive capacity
same,median survival,[9],41 days
Cc1cnc(Nc2ccc(OCCN3CCCC3)cc2)nc1Nc1cccc(S(=O)(=O)NC(C)(C)C)c1 [TG101348],IL-2-induced STAT5 activation/phosphorylation in T-cells,[3],remained intact
same,IC50,"[1]; Homo sapiens, TG101348 and alisertib added together at fixed ratio 1:5, read-out: IC50 of the combination, TG101348 concentration",0.35 µM
same,concentrations reducing alloreactive T-cell proliferation,[1]; alloMLR,≥ 350 nM
same,STAT3 (pSTAT3 Y705) phosphorylation in T-cells,[10],only inhibited pSTAT3
same,RORgammaT expression in alloresponder CD4+ T-cells,[6],significantly decreases
same,iTreg:allo Tconv ratio,[8],incrementally larger Treg:allo Tconv ratios
same,iTreg differentiation / absolute numbers of iTregs,[8],less absolute numbers of iTregs and allo Tconv
same,suppressive capacity of iTregs generated in presence of inhibitor,[8],improved iTreg function compared with DMSO
NC(=O)c1ccc(Nc2ncc(F)c(Nc3ccccc3Cl)n2)cc1 [bisanilinopyrimidine (I)],bioavailability,[11],limited bioavailability
